Patent US20050101595A1, “N-containing cycloalkyl-substituted amino-thiazole derivatives and pharmaceutical compositions for inhibiting cell proliferation and methods for their use” (PFIZER INC., priority 2003, published 2005)
Counter-ions that a name gives are not always drawn.

Legend:
CDK2/Cyclin A = CDK2/Cyclin A (Homo sapiens, UniProt P24941); experiment: Inhibition of CDK2/Cyclin A Retinoblastoma Kinase Activity; format: biochemical; conditions: for inhibition at 0.05 µM: read-out: % inhibition of CDK2 (@ 0.05 μM), compound at 0.05 μM; for Ki: apparent Ki, CDK2/proteolyzed cyclin A, Rb fragment substrate, 25 μM ATP
In short: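 Radiometric filter-binding readout of phosphate transfer to an Rb substrate fragment by purified CDK2/truncated cyclin A at 10 or 19 nM. Run at pH 7.4 with 25 μM ATP, 30 °C, 60–75 min, linear rates; background without enzyme subtracted, Ki from competitive-inhibition models.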

HCT-116 cell line = experiment: Inhibition of cell growth, tetrazolium salt (MTT) assay; format: cell-based; conditions: Homo sapiens, MTT; for inhibition at 0.175 µM: HCT-116, HCT-116 cells, compound at 0.175 uM; for IC50: HCT-116, 120 h, first HCT-116 column (c4), three to five days, read-out: HCT-116 IC50
In short: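 Growth inhibition is scored relative to cells receiving only 0.5% (v/v) DMSO. Plated cells rest 4 h, then take compound for three to five days at 37° C; MTT reduction to formazan is read at 540 nm.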

| Compound | inhibition at 0.05 µM (CDK2/Cyclin A) | inhibition at 0.175 µM (HCT-116 cell line) | Ki (CDK2/Cyclin A) | IC50 (HCT-116 cell line) |
| --- | --- | --- | --- | --- |
| CCN1CCN(CCCS(=O)(=O)N2CCC(Nc3nc(N)c(C(=O)c4c(F)cccc4F)s3)CC2)CC1 [Example V59] | 72% | 7% | – | – |
| C[C@@H](NCCC(=O)N1CCC(Nc2nc(N)c(C(=O)c3c(F)cccc3F)s2)CC1)c1ccccc1 [Example U1, Trifluoroacetic Acid Salt] | – | – | 20.7 nM | 910 nM |
| Nc1nc(NC2CCN(S(=O)(=O)CCCN3CCC(CO)CC3)CC2)sc1C(=O)c1c(F)cccc1F [Example V133] | 71% | 0% | – | – |
| Nc1nc(NC2CCN(S(=O)(=O)CCCN[C@H]3CC[C@@H](CO)CC3)CC2)sc1C(=O)c1c(F)cccc1F [Example V170] | 82% | 14% | – | – |
| CCOCCNCCCS(=O)(=O)N1CCC(Nc2nc(N)c(C(=O)c3c(F)cccc3F)s2)CC1 [Example V98] | 81% | 21% | – | – |
| Cc1ccc(CNCCCS(=O)(=O)N2CCC(Nc3nc(N)c(C(=O)c4c(F)cccc4F)s3)CC2)o1 [Example V123] | 76% | 5% | – | – |
| CN(C)CCN(C)CCCS(=O)(=O)N1CCC(Nc2nc(N)c(C(=O)c3c(F)cccc3F)s2)CC1 [Example V95] | 70% | 3% | – | – |
| Nc1nc(NC2CCN(S(=O)(=O)CCCN3CCOCC3)CC2)sc1C(=O)c1c(F)cccc1F [Example V88] | 77% | 17% | – | – |
| Nc1nc(NC2CCN(S(=O)(=O)CCCN(CCO)CCO)CC2)sc1C(=O)c1c(F)cccc1F [Example V78] | 80% | 7% | – | – |
| Nc1nc(NC2CCN(S(=O)(=O)CCCNCc3ccccc3F)CC2)sc1C(=O)c1c(F)cccc1F [Example V183, (4-Amino-2-{[1-({3-[(2-fluorobenzyl)amino]propyl}sulfonyl)-4-piperidinyl]amino}-1,3-thiazol-5-yl)(2,6-difluorophenyl)methanone.] | – | – | 4 nM | 90 nM |
| CCN(CCCS(=O)(=O)N1CCC(Nc2nc(N)c(C(=O)c3c(F)cccc3F)s2)CC1)CCOC [Example V130] | 75% | 36% | – | – |
| Nc1nc(NC2CCN(S(=O)(=O)CCCN3CCCC(O)C3)CC2)sc1C(=O)c1c(F)cccc1F (centres unmarked) [Example V77] | 72% | 7% | – | – |
| CCCN(CCCS(=O)(=O)N1CCC(Nc2nc(N)c(C(=O)c3c(F)cccc3F)s2)CC1)CC1CC1 [Example V61] | 81% | 65% | – | – |
| CC1(C)CCCN(CCCS(=O)(=O)N2CCC(Nc3nc(N)c(C(=O)c4c(F)cccc4F)s3)CC2)C1 [Example K60, {4-Amino-2-[(1-{[3-(3,3-dimethylpiperidin-1-yl)propyl]sulfonyl}piperidin-4-yl)amino]-1,3-thiazol-5-yl}(2,6-difluorophenyl)methanone] | – | – | 13 nM | 120 nM |
| Nc1nc(NC2CCN(S(=O)(=O)CCCNCc3ccncc3)CC2)sc1C(=O)c1c(F)cccc1F [Example V23] | 87% | 24% | – | – |
| Nc1nc(NC2CCN(S(=O)(=O)CCCN3CCCCCC3)CC2)sc1C(=O)c1c(F)cccc1F [Example V69] | 81% | 54% | – | – |
| CNCCCS(=O)(=O)N1CCC(Nc2nc(N)c(C(=O)c3c(F)cccc3F)s2)CC1 [Example V86] | 61% | 22% | – | – |
| CC(C)N1CCN(CCCS(=O)(=O)N2CCC(Nc3nc(N)c(C(=O)c4c(F)cccc4F)s3)CC2)CC1 [Example V115] | 75% | 9% | – | – |
| Nc1nc(NC2CCN(S(=O)(=O)CCCN3CCSCC3)CC2)sc1C(=O)c1c(F)cccc1F [Example V104] | 86% | 42% | – | – |
| C=CCN1CCN(CCCS(=O)(=O)N2CCC(Nc3nc(N)c(C(=O)c4c(F)cccc4F)s3)CC2)CC1 [Example V74] | 82% | 44% | – | – |
| Nc1nc(NC2CCN(S(=O)(=O)CCCNCCC3CCOCC3)CC2)sc1C(=O)c1c(F)cccc1F [Example V164] | 85% | 0% | – | – |
| CCCN(CCO)CCCS(=O)(=O)N1CCC(Nc2nc(N)c(C(=O)c3c(F)cccc3F)s2)CC1 [Example V106] | 82% | 11% | – | – |
| CN(C)CCCS(=O)(=O)N1CCC(Nc2nc(N)c(C(=O)c3c(F)cccc3F)s2)CC1 [Example V147] | 78% | 23% | – | – |
| Nc1nc(NC2CCN(S(=O)(=O)CCCN[C@H]3CCC(=O)NC3)CC2)sc1C(=O)c1c(F)cccc1F [Example V157] | 83% | 46% | – | – |
| Nc1nc(NC2CCN(S(=O)(=O)CCCNc3ccccn3)CC2)sc1C(=O)c1c(F)cccc1F [Example K56, (4-Amino-2-{1-[3-(pyridin-2-ylamino)-propane-1-sulfonyl]-piperidin-4-ylamino}-thiazol-5-yl)-(2,6-difluoro-phenyl)-methanone. Trifluoroacetic Acid Salt] | – | – | 8 nM | 2640 nM |

| Compound | inhibition at 0.05 µM (CDK2/Cyclin A) | inhibition at 0.175 µM (HCT-116 cell line) | Ki (CDK2/Cyclin A) | IC50 (HCT-116 cell line) |
| --- | --- | --- | --- | --- |
| CCCNCCCS(=O)(=O)N1CCC(Nc2nc(N)c(C(=O)c3c(F)cccc3F)s2)CC1 [Example V56] | 83% | 19% | – | – |
| Nc1nc(NC2CCN(S(=O)(=O)CCCNCc3ccco3)CC2)sc1C(=O)c1c(F)cccc1F [Example V24] | 89% | 48% | – | – |
| Cc1cc(NCCCS(=O)(=O)N2CCC(Nc3nc(N)c(C(=O)c4c(F)cccc4F)s3)CC2)no1 [Example V44] | 80% | 17% | – | – |
| Nc1nc(NC2CCN(S(=O)(=O)CCCNc3ccc4cccc(O)c4n3)CC2)sc1C(=O)c1c(F)cccc1F [Example V142] | 80% | 0% | – | – |
| CCCN(CCC#N)CCCS(=O)(=O)N1CCC(Nc2nc(N)c(C(=O)c3c(F)cccc3F)s2)CC1 [Example V105] | 84% | 0% | – | – |
| Nc1nc(NC2CCN(S(=O)(=O)CCCNC3CCCC3)CC2)sc1C(=O)c1c(F)cccc1F [Example V75] | 88% | 19% | – | – |
| COCCNCCCS(=O)(=O)N1CCC(Nc2nc(N)c(C(=O)c3c(F)cccc3F)s2)CC1 [Example V67] | 87% | 21% | – | – |
| C=CCN(C)CCCS(=O)(=O)N1CCC(Nc2nc(N)c(C(=O)c3c(F)cccc3F)s2)CC1 [Example V135] | 78% | 82% | – | – |
| Nc1nc(NC2CCN(S(=O)(=O)CCCN3CCN4CCCC4C3)CC2)sc1C(=O)c1c(F)cccc1F (centres unmarked) [Example V152] | 78% | 0% | – | – |
| CC(C)(C)c1cc(NCCCS(=O)(=O)N2CCC(Nc3nc(N)c(C(=O)c4c(F)cccc4F)s3)CC2)no1 [Example V117] | 80% | 0% | – | – |
| Nc1nc(NC2CCN(S(=O)(=O)CCCNc3ccon3)CC2)sc1C(=O)c1c(F)cccc1F [Example V116] | 77% | 0% | – | – |
| CC(C)OCCNCCCS(=O)(=O)N1CCC(Nc2nc(N)c(C(=O)c3c(F)cccc3F)s2)CC1 [Example V131] | 82% | 5% | – | – |
| Nc1nc(NC2CCN(S(=O)(=O)CCCNCCC3CCCN3)CC2)sc1C(=O)c1c(F)cccc1F (centres unmarked) [Example V1] | 80% | 7% | – | – |
| CC(=O)NC1CCN(CCCS(=O)(=O)N2CCC(Nc3nc(N)c(C(=O)c4c(F)cccc4F)s3)CC2)C1 (centres unmarked) [Example V41] | 71% | 14% | – | – |
| CSCCCNCCCS(=O)(=O)N1CCC(Nc2nc(N)c(C(=O)c3c(F)cccc3F)s2)CC1 [Example V127] | 87% | 13% | – | – |
| CCCCC(CO)NCCCS(=O)(=O)N1CCC(Nc2nc(N)c(C(=O)c3c(F)cccc3F)s2)CC1 (centres unmarked) [Example V120] | 89% | 6% | – | – |
| Nc1nc(NC2CCN(S(=O)(=O)CCCN3C[C@@H]4C[C@H]3CO4)CC2)sc1C(=O)c1c(F)cccc1F [Example V143] | 90% | 34% | – | – |
| CCN(CC)CCN(C)CCCS(=O)(=O)N1CCC(Nc2nc(N)c(C(=O)c3c(F)cccc3F)s2)CC1 [Example V33] | 76% | 16% | – | – |
| Nc1nc(NC2CCN(S(=O)(=O)CCCNCC3CCCCC3)CC2)sc1C(=O)c1c(F)cccc1F [Example V118] | 90% | 54% | – | – |
| CN(CCO)CCCS(=O)(=O)N1CCC(Nc2nc(N)c(C(=O)c3c(F)cccc3F)s2)CC1 [Example V148] | 83% | 2% | – | – |
| Nc1nc(NC2CCN(S(=O)(=O)CCCN3Cc4ccccc4C3)CC2)sc1C(=O)c1c(F)cccc1F [Example V155] | 87% | 11% | – | – |
| CN1CCCN(CCCS(=O)(=O)N2CCC(Nc3nc(N)c(C(=O)c4c(F)cccc4F)s3)CC2)CC1 [Example V30] | 78% | 8% | – | – |
| Nc1nc(NC2CCN(S(=O)(=O)CCCN3CCNC(=O)CC3)CC2)sc1C(=O)c1c(F)cccc1F [Example V156] | 82% | 0% | – | – |
| Nc1nc(NC2CCN(S(=O)(=O)CCCNCc3cccc(F)c3)CC2)sc1C(=O)c1c(F)cccc1F [Example V100] | 91% | 88% | – | – |
